Like-named read-outs stand apart in the source and are kept apart here.
What was measured:
[1] = molecular target: T1, CDK5/GST-p25 (Homo sapiens, UniProt Q00535); assay: Inhibition of CDK5/GST-p25 kinase activity (ELISA with time-resolved fluorescence readout); type: biochemical
T1 construct: The final construct, encoding for full-length human CDK5; made in house; host or cells: Sf21 insect cells (baculovirus co-infection)
Method: Two recombinant baculoviral constructs were created, one encoding for human CDK5 and the other encoding for human p25 with an amino-terminal glutathione-S-transferase (GST) tag. PCR amplification of full-length CDK5 was performed utilizing human brain cDNA as a template and Pfu Turbo polymerase (Strategene). The PCR product from this reaction was subcloned into the baculoviral expression vector pFASTBAC1 (Gibco/BRL). The final construct, encoding for full-length human CDK5 (base pairs 25-903 of GenBank Accession #NM_004935), is 292 amino acids long with a predicted MW of 33.3 kDa.
For p25, the active truncated form of p35, amino acids 108-307 were PCR-amplified from human fetal brain cDNA (Clontech QUICK-Clone cDNA) using the Advantage 2 PCR system (Clontech). The PCR product was subcloned into the baculoviral transfer vector pFBGSTP (an engineered derivative of the baculoviral transfer vector pFASTBAC1). The final baculoviral construct encodes for base pairs 419-1021 of GenBank Accession #NM_003885, with an amino-terminal GST tag. The expressed GST-p25 is 444 amino acids long with a predicted MW of 50.3 kDa.
The CDK5/GST-p25 complex was generated by coexpression. Sf21 cells were cultured in TNM-FHS media at a density of 1.5×10^6 cells/mL and infected with each recombinant virus at MOI values of 5 (for CDK5) and 10 (for GST-p25). The cells were harvested 40 h after infection. For purification, the 100,000×g supernatant solution was used. Expression was confirmed by running samples on SDS-PAGE, followed by immunoblot analysis utilizing antibodies against CDK5 (anti-CDK5 (268-283); Calbiochem #219449) and p35 (Santa Cruz #sc820). The CDK5/GST-p25 complex was purified by glutathione affinity chromatography.
Compounds were tested for their ability to inhibit the kinase activity of recombinant baculoviral CDK5/GST-p25 using an enzyme-linked immunosorbent assay (ELISA) with time-resolved fluorescence (TRF) readout. Briefly, each 384-well FluoroNunc Maxisorp plate (Cat # 460372) plate was coated with 50 μl/well of 50 μg/ml substrate solution (recombinant GST-Rb(773-928)) in Tris-buffered saline (TBS). The CDK5/GST-p25 assay mixture (total volume=50 μl/well) consisting of 20 mM HEPES (pH 7.2), 10 μM ATP, 10 mM MgCl2, 5 mM EGTA, 25 mM β-glycerophosphate, 0.05% BSA, 2.5% DMSO, and various concentrations of test compound were then added to the assay plate. Enzyme (2 ng/ml CDK5/GST-p25) was added and the reaction was allowed to proceed at 37° C. for 20 minutes. Detection of the phosphorylated product was performed by adding 50 μl/well of phospho-Rb (Ser-780) antibody (Cell Signaling # 9307) diluted 1:10,000 in antibody dilution buffer (0.1% BSA in TBST). After 1-hour incubation at 37° C., 50 μl/well of Eu-Nl labelled anti-rabbit antibody (Wallac # AD0105; 1:50,000 in antibody dilution buffer) was added. Incubation at 37° C. then proceeded for 1 hour, followed by addition of 50 μl enhancement solution (Wallac #1244-105). The plate was gently agitated and after a few minutes, the fluorescence of the resulting solution was measured using a Multilabel Reader (Victor2 Model # 1420-018 or Envision Model # 2100). Inhibition data were analyzed using ActivityBase and IC50 curves were generated using XLFit 3.0.5.

[2] = molecular target: T2, His6-GSK-3β (Homo sapiens, UniProt P49841); assay: Inhibition of His6-GSK-3β kinase activity (ELISA-based format, time-resolved fluorescence readout); type: biochemical; details: read-out: GSK3β IC50
T2 construct: made in house; host or cells: Sf21 insect cells (baculovirus)
Description: Full-length GSK-3β was amplified from a sequence-verified I.M.A.G.E. EST acquired from Research Genetics (Invitrogen, Clone ID# CSODB003YJ02). The final sequence-verified cDNA contained the coding region for a NH2-terminal tag, which encoded for 6 histidines and then eight vector-encoded amino acids prior to the start of GSK3β, which contained by # 43-1342 of Genbank Accession # NM_002093, encoding amino acids #2-419. The predicted molecular weight of the tagged, 435 amino acid, full-length protein is 48.5 kDa. The major structural element of this protein is the kinase domain, which is from amino acids #56-340. Recombinant baculoviral DNA was prepared by transposition in E. coli (BAC-TO-BAC system: Invitrogen) and the virus generated and amplified in Sf21 insect cells. A suspension culture of Sf21 cells was infected at an MOI of 0.7 and cell density of 1.5×10^6 cells/mL in Excell 420 serum-free media (JRH BioScience) and harvested 65 h after infection. The 100,000×g supernatant solution was used for purification. Expression was confirmed by running samples on SDS-PAGE, followed by immunoblot analysis utilizing both a Penta-HIS antibody (Qiagen #34660) and a GSK-3α/GSK-3β antibody (Calbiochem #368662, data not shown). The His6-tagged protein was purified to in one step by Ni-NTA affinity chromatography.
Inhibitory effects of compounds on baculoviral GSK-3β kinase activity were evaluated using an ELISA-based format in a 384-well FluoroNunc Maxisorp plate (Cat # 460372) with a time-resolved fluorescence readout. Briefly, each plate was coated with 50 μl/well of 20 μg/ml substrate solution (recombinant GST-Rb) in Tris-buffered saline (TBS). The GSK-3β assay mixture (total volume=50 μl/well) consisting of 50 mM HEPES (pH 7.2), 20 μM ATP, 10 mM MgCl2, 5 mM EGTA, 25 mM β-glycerophosphate, 0.05% BSA, 2.5% DMSO, and various concentrations of test compound were then added to the assay plate. Enzyme (200 ng/ml His6-GSK-3β) was then added and the reaction was allowed to proceed at 37° C. for 30 minutes. Detection of the phosphorylated product was performed by adding 50 μl/well of phospho-Rb (Ser-780) antibody (Cell Signaling # 9307) diluted 1:10,000 in antibody dilution buffer (0.1% BSA in TBST). After 1-hour incubation at 37° C., 50 μl/well of Eu-N1 labelled anti-rabbit antibody (Wallac # AD0105; 1:50,000 in antibody dilution buffer) was added. Incubation at 37° C. then proceeded for 1 hour, followed by addition of 50 μl enhancement solution (Wallac #1244-105). The plate was gently agitated and after a few minutes, the fluorescence of the resulting solution was measured using a Multilabel Reader (Victor2 Model # 1420-018 or Envision Model 2100). Inhibition data were analyzed using ActivityBase and IC50 curves were generated using XLFit 3.0.5.

T2 sequence (P49841 2-419): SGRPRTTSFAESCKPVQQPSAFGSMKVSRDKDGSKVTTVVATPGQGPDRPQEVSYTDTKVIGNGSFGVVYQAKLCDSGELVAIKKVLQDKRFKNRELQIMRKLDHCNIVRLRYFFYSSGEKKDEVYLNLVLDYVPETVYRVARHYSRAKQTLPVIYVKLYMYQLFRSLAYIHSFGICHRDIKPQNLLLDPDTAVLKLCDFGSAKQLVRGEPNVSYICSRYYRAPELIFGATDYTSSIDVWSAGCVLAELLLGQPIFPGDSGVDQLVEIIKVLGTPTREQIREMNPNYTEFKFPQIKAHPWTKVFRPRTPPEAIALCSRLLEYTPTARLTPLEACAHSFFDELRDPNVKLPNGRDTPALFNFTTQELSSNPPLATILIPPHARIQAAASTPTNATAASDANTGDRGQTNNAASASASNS
T1 sequence (Q00535 whole entry): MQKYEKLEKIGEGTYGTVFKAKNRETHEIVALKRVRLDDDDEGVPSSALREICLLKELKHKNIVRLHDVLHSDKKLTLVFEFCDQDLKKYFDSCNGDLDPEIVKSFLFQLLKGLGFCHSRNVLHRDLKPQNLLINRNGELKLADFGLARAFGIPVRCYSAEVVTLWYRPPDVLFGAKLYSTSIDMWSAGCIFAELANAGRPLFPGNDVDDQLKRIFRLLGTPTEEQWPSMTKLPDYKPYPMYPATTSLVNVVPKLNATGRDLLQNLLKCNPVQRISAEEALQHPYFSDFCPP
T1 sequence (Q15078 108-307 partner limits assumed): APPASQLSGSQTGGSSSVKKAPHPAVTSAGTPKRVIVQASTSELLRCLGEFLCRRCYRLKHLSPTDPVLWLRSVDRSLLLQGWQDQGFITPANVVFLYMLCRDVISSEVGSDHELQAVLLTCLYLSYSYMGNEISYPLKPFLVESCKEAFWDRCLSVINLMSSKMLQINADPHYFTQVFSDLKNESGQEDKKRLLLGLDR

Compound	IC50 ([1]; class symbols)	IC50 ([2]; class symbols)	IC50 ([1]; numeric bounds)	IC50 ([2]; numeric bounds)	CDK5 % @10 μM ([1]; @10 μM)
N#Cc1ccc2c(c1)C(c1nc(Nc3ccc(N4CCS(=O)(=O)CC4)cc3)nc3nn(C4CCCC4)cc13)C(=O)N2 (stereo not drawn) [Example 135, 3-{2-Cyclopentyl-6-[4-(1,1-dioxo-1λ^6-thiomorpholin-4-yl)-phenylamino]-2H-pyrazolo[3,4-d]pyrimidin-4-yl}-2-oxo-2,3-dihydro-1H-indole-5-carbonitrile]	> 10 µM	< 0.3 µM			
CCOCCn1cc2c(C3C(=O)Nc4ccc(Cl)cc43)nc(NCCCNC)nc2n1 (stereo not drawn) [Example 215, 5-Chloro-3-[2-(2-ethoxy-ethyl)-6-(3-methylamino-propylamino)-2H-pyrazolo [3,4-d]pyrimidin-4-yl]-1,3-dihydro-indol-2-one]	0.3 to 3 µM	0.3 to 3 µM			
CCCn1cc2c(C3C(=O)Nc4ccc(Br)cc43)nc(NC[C@@H](O)CO)nc2n1 (stereo partly drawn) [Example 368, 5-Bromo-3-[6-((R)-2,3-dihydroxy-propylamino)-2-propyl-2H-pyrazolo[3,4-d]pyrimidin-4-yl]-1,3-dihydro-indol-2-one]	< 0.3 µM	< 0.3 µM			
CCCOCCNc1nc2c(c(C3C(=O)Nc4ccc(C#N)cc43)n1)CCC2 (stereo not drawn) [Example 343, 2-Oxo-3-[2-(2-propoxy-ethylamino)-6,7-dihydro-5H-cyclopentapyrimidin-4-yl]-2,3-dihydro-1H-indole-5-carbonitrile]	> 10 µM	> 10 µM			
O=C1Nc2ccc(F)cc2C1c1nc(NCc2cccnc2)nc2c1CCC2 (stereo not drawn) [Example 321, 5-Fluoro-3-{2-[(pyridin-3-ylmethyl)-amino]-6,7-dihydro-5H-cyclopentapyrimidin-4-yl}-1,3-dihydro-indol-2-one]			> 3 µM	> 3 µM	
N#Cc1ccc2c(c1)C(c1nc(NCCc3ccccn3)nc3nn(C4CCCC4)cc13)C(=O)N2 (stereo not drawn) [Example 125, 3-[2-cyclopentyl-6-(2-pyridin-2-yl-ethylamino)-2H-pyrazolo [3,4-d]pyrimidin-4-yl]-2-oxo-2,3-dihydro-1H-indole-5-carbonitrile]	> 10 µM	< 0.3 µM			
O=C1Nc2ccc(Br)cc2C1c1nc(NCc2ccccn2)nc2nn(C3CCCC3)cc12 (stereo not drawn) [Example 179, 5-Bromo-3-{2-cyclopentyl-6-[(pyridin-2-ylmethyl)-amino]-2H-pyrazolo [3,4-d]pyrimidin-4-yl}-1,3-dihydro-1H-indol-2-one]	0.3 to 3 µM	< 0.3 µM			
N#Cc1ccc2c(c1)C(c1nc(Nc3ccc(F)nc3)nc3c1CCC3)C(=O)N2 (stereo not drawn) [Example 351, 3-[2-(6-Fluoro-pyridin-3-ylamino)-6,7-dihydro-5H-cyclopentapyrimidin-4-yl]-2-oxo-2,3-dihydro-1H-indole-5-carbonitrile]	> 10 µM	> 10 µM			
CCOCCNc1nc2c(c(C3C(=O)Nc4ccc(F)cc43)n1)CCC2 (stereo not drawn) [Example 319, 3-[2-(2-Ethoxy-ethylamino)-6,7-dihydro-5H-cyclopentapyrimidin-4-yl]-5-fluoro-1,3-dihydro-indol-2-one]	> 10 µM	> 10 µM			
O=C1Nc2ccc(Br)cc2C1c1nc(NCc2ccc(Cl)nc2)nc2c1CCC2 (stereo not drawn) [Example 338, 5-Bromo-3-{2-[(6-chloro-pyridin-3-ylmethyl)-amino]-6,7-dihydro-5H-cyclopentapyrimidin-4-yl}-1,3-dihydro-indol-2-one]		> 10 µM	> 3 µM		
C[C@@H](O)CNc1nc(C2C(=O)Nc3ccc(Br)cc32)c2cn(C)nc2n1 (stereo partly drawn) [Example 358, 5-Bromo-3-[6-(2-(R)-hydroxy-propylamino)-2-methyl-2H-pyrazolo [3,4-d]pyrimidin-4-yl]-1,3-dihydroindol-2-one]	< 0.3 µM	< 0.3 µM			

Other lines, results leading:

IC50 ([1]; class symbols)	IC50 ([2]; class symbols)	IC50 ([1]; numeric bounds)	IC50 ([2]; numeric bounds)	CDK5 % @10 μM ([1]; @10 μM)	Compound
> 10 µM	< 0.3 µM				CN(C)CCN1CCN(c2nc(C3C(=O)Nc4ccc(Cl)cc43)c3cn(C4CCCC4)nc3n2)CC1 (stereo not drawn) [Example 144, 5-Chloro-3-{2-cyclopentyl-6-[4-(2-dimethylamino-ethyl)-piperazin-1-yl]-2H-pyrazolo[3,4-d]pyrimidin-4-yl}-1,3-dihydro-indol-2-one]
0.3 to 3 µM	0.3 to 3 µM				COc1ccc2c(c1)C(c1ncnc3nn(C4CCCCC4)cc13)C(=O)N2 (stereo not drawn) [Example 52, 3-(2-Cyclohexyl-2H-pyrazolo[3,4-d]pyrimidin-4-yl)-5-methoxy-1,3-dihydro-indol-2-one]
< 0.3 µM	< 0.3 µM				COCCCNc1nc(C2C(=O)Nc3ccc(C#N)cc32)c2cn(C3CCCC3)nc2n1 (stereo not drawn) [Example 175, 3-[2-Cyclopentyl-6-(3-methoxy-propylamino)-2H-pyrazolo [3,4-d]pyrimidin-4-yl]-2-oxo-2,3-dihydro-1H-indole-5-carbonitrile]
	< 0.3 µM			70% @10 μM	O=C1Nc2ccc(Br)cc2C1c1nc(NCCc2cccnc2)nc2nn(C3CCCC3)cc12 (stereo not drawn) [Example 181, 5-Bromo-3-[2-cyclopentyl-6-(2-pyridin-3-yl-ethylamino)-2H-pyrazolo [3,4-d]pyrimidin-4-yl]-1,3-dihydro-1H-indol-2-one]
> 10 µM	< 0.3 µM				CN(C)CCOc1nc(C2C(=O)Nc3ccc(C#N)cc32)c2cn(C3CCCC3)nc2n1 (stereo not drawn) [Example 122, 3-[2-cyclopentyl-6-(2-dimethylamino-ethoxy)-2H-pyrazolo[3,4-d]pyrimidin-4-yl]-2-oxo-2,3-dihydro-1H-indole-5-carbonitrile]
	< 0.3 µM				CCCCNc1nc(C2C(=O)Nc3ccc(C#N)cc32)c2cn(C3CCCC3)nc2n1 (stereo not drawn) [Example 116, 3-(6-butylamino-2-cyclopentyl-2H-pyrazolo [3,4-d]pyrimidin-4-yl)-2-oxo-2,3-dihydro-1H-indole-5-carbonitrile]

Source: patent US8354414B2, “Substituted bicyclic pyrimidines” (Cephalon, Inc, priority 2006, dated 2013)
